Laboratory results from ChEMBL document CHEMBL4000242, “Discovery of furan carboxylate derivatives as novel inhibitors of ATP-citrate lyase via virtual high-throughput screening” (Bioorg Med Chem Lett, 2017).
Active and inactive are the calls of the source. The rule behind the calls is not given here.

Tests used:
[1] = biological target: T1, ATP-citrate synthase (Homo sapiens) (UniProt P53396); experiment: Competitive inhibition of ATP citrate lyase (unknown origin) using sodium citrate as substrate by ADP-Glo luminescence assay
T1 sequence (whole entry): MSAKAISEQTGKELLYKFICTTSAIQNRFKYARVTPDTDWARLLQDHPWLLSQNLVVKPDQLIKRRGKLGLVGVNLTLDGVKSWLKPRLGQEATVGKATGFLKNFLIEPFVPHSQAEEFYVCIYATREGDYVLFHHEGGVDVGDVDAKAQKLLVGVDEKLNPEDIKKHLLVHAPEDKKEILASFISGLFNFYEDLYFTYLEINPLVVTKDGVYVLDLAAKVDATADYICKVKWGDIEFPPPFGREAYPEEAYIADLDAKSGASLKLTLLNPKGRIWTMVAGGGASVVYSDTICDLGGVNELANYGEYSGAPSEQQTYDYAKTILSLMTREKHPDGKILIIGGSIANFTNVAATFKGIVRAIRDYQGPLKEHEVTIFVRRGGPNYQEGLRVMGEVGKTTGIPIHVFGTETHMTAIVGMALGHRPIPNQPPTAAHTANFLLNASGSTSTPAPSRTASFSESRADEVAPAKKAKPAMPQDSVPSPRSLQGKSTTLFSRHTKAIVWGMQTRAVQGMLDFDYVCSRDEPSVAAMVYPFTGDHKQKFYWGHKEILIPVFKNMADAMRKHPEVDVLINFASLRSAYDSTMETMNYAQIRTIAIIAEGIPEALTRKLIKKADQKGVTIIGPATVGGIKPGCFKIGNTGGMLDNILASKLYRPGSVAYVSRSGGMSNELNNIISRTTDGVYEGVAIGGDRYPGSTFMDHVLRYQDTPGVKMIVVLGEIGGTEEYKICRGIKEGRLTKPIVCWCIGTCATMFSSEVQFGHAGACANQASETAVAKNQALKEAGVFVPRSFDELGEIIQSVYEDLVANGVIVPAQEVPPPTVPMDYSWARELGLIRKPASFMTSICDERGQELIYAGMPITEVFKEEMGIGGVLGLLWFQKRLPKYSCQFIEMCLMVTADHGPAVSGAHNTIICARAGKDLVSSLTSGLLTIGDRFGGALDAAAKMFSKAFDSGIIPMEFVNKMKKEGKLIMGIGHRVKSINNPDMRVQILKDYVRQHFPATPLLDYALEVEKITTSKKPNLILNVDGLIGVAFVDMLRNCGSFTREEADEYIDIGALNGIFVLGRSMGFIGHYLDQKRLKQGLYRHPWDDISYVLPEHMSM

[2] = biological target: T1, ATP-citrate synthase (Homo sapiens); experiment: Inhibition of ATP citrate lyase (unknown origin) at 100 uM using sodium citrate as substrate in presence of CoA/ATP by ADP-Glo luminescence assay relative to control
[3] = biological target: T1, ATP-citrate synthase (Homo sapiens); experiment: Inhibition of ATP citrate lyase (unknown origin) at 10 uM using sodium citrate as substrate in presence of CoA/ATP by ADP-Glo luminescence assay relative to control
ATP-citrate synthase = biological target: T2, ATP-citrate synthase (Homo sapiens, UniProt P53396); experiment: Inhibition of ATP citrate lyase (unknown origin) using sodium citrate as substrate by ADP-Glo luminescence assay
T2 sequence (P53396 whole entry): T1 sequence (whole entry)

O=C(O)C[C@@](O)(C[C@H](O)CCCCCCc1ccc(Cl)cc1Cl)C(=O)O
inhibition [1]: Active

O=C(O)c1ccc(COc2ccc3c(c2)oc(=O)c2ccccc23)o1
inhibition [2]: 49% | inhibition [3]: 9%

Cc1oc2ccc(OC(C(=O)O)c3ccccc3)cc2c1C(=O)O (centres undefined)
inhibition [2]: 9% | inhibition [3]: 6%

Cc1oc2c(cc(NS(=O)(=O)c3ccc(F)cc3)c3ccccc32)c1C(=O)O
inhibition [2]: 95% | inhibition [3]: 28%

O=C(O)C[C@@](O)(C(=O)O)[C@H](O)C(=O)O
inhibition [1]: Active

Cc1oc(C(=O)O)cc1COc1ccc2c3c(c(=O)oc2c1C)CCCC3
inhibition [2]: 90% | inhibition [3]: 17%

Cc1oc(C(=O)O)cc1COc1ccc2c(C)c(Cc3ccccc3)c(=O)oc2c1
inhibition [2]: 101% | IC50 (ATP-citrate synthase): 11.9 µM | inhibition [3]: 45%

Cc1oc(C(=O)O)cc1COc1ccc2c(c1)oc(=O)c1ccccc12
inhibition [2]: 64% | inhibition [3]: 3%

Cc1ccc(S(=O)(=O)Nc2cc3c(C(=O)O)c(C)oc3c3ccccc23)cc1
inhibition [2]: 42% | inhibition [3]: 12%

Cc1c(OCc2ccc(C(=O)O)o2)ccc2c3c(c(=O)oc12)CCCC3
inhibition [2]: 88% | inhibition [3]: 18%

Cc1oc(C(=O)O)cc1COc1ccc2c(oc(=O)c3ccccc32)c1C
inhibition [2]: 84% | inhibition [3]: 32%

COc1ccc(-c2ccccc2)cc1NS(=O)(=O)c1cc(Cl)cc(Cl)c1O
IC50 (ATP-citrate synthase): 0.377 µM

CCCCCCc1cc2c3c(c(=O)oc2cc1OCc1cc(C(=O)O)oc1C)CCCC3
inhibition [2]: 100% | inhibition [3]: 95%

CCc1ccc(S(=O)(=O)Nc2cc3c(C(=O)O)c(C)oc3c3ccccc23)cc1
inhibition [2]: 97% | IC50 (ATP-citrate synthase): 13.8 µM | inhibition [3]: 42%

Cc1oc2c(cc(NS(=O)(=O)c3ccc(C(C)(C)C)cc3)c3ccccc32)c1C(=O)O
inhibition [2]: 59% | inhibition [3]: 16%
